Columns and labels:
iBMK cells [1] = test: MTT assay, viability of iBMK cells; format: cell-based, mouse; conditions: for sensitivity to TNF-α-induced cell death (MTT assay): TNF-α/CHX (0.05 μg/ml)
Protocol: 3-(4,5-dimethylthiazol-2-yl)-2,5-diphenyltetrazolium bromide (MTT) assay to measure the viability of iBMK cells treated with paclitaxel, CHX, or both mouse TNF-α and CHX was performed as previously described (Ioffe, M. L., et al., Prostate 61: 243-247. (2004)).
To test if apoptosis mediated by general translation inhibition was dependent on specific BH3-only proteins, the apoptotic response of puma^−/−, bim^−/−, noxa^−/−, nbk/bik^−/− iBMK cells to translation inhibition was tested with CHX. In addition to W2, D3, X2 or K1 cells, puma^−/−, bim^−/−, noxa^−/− or nbk/bik^−/− cells were treated with increasing concentration of CHX (0.05, 0.5, 1.0, 5.0 and 10.0 μg/ml) for 24 hours to induce translation inhibition and viability was assessed. […] In contrast, when D3, K1 (FIG. 6B) and nbk/bik^−/− (FIG. 6C) cells were treated with CHX, cell viability remained high. […] In contrast, D3 cells were resistant to cell death induced by TNF-α and paclitaxel (FIGS. 6D and E). […] Furthermore, NBK/BIK was not required for TNF-α-mediated apoptosis (FIG. 6D) which signals through tBID (Li, H., et al., Cell 94: 491-501 (1998); Luo, X., et al., Cell 94: 481-490 (1998)), nor was NBK/BIK required for apoptosis induced by taxanes (FIG. 6E) which is dependent on BIM (Bouillet, P., et al., Science 286: 1735-1738 (1999); Tan, T. T., et al., Cancer Cell 7: 227-238. (2005)). These findings support the role for specific BH3-only proteins controlling the response to discrete apoptotic stimuli.

caspase-3, PARP = test: Western blot of active caspase-3 and PARP in T-Rex-293 lysates; format: cell-based, human
Protocol: Western blot analysis and immunofluorescence were performed as previously described (Perez, D., and White, E. J. Cell Biol. 141: 1255-1266 (1998); Perez, D., and White, E. Mol. Cell 6: 53-63 (2000)). The term “Western blot” refers to a method for identifying proteins in a complex mixture; proteins are separated electrophoretically in a gel medium; transferred from the gel to a protein binding sheet or membrane; and the sheet or membrane containing the separated proteins exposed to specific antibodies which bind to, locate, and enable visualization of protein(s) of interest. T-Rex-293 (mazF/pcDNA3) and T-Rex-293 (mazF/mazE) cells were harvested at 0, 24, 48 and 72 hr post-treatment with tetracycline or staurosporine by scraping and centrifugation. All cell pellets were lysed in 2× Laemmli buffer. Cell lysates were subjected to electrophoresis on a 15% SDS-PAGE gel and then transferred onto an Immobilon-P membrane (Millipore, Bedford, Mass.). The blot was incubated with following antibody: anti-active caspase-3 rabbit polyclonal antibody (Cell Signaling Technology, Beverly, Mass.), anti-BAX, anti-BAK rabbit polyclonal antibody (NT) (Upstate Biotechnology Inc., Lake Placid, N.Y.), anti-BID goat polyclonal antibody (R&D Systems, Inc, Minneapolis, Minn.), anti-Bim rabbit polyclonal antibody (Alexis Biochemical, San Diego, Calif.), anti-BCL-2 hamster monoclonal antibody (PharMingen, San Diego, Calif.), anti-BCL-XL mouse monoclonal antibody (Trevigen, Gaithersburg, Md.), anti-MCL-1 rabbit polyclonal antibody (Stressgen Biotechnologies, Victoria, British Columbia, Canada), anti-PARP mouse monoclonal antibody (PharMingen, San Diego, Calif.), anti-PUMA rabbit polyclonal antibody (Nelson, D. A., et al., Genes Dev. 18: 2095-2107 (2004)), anti-E1A monoclonal antibody; anti-actin monoclonal antibody (Oncogene Research Products); and anti-Xpress monoclonal antibody (Invitrogen). An antibody directed to human NBK/BIK was generated by expression of a GST-tagged human NBK/BIK fusion protein encoding an N-terminal 78-amino acid region in bacteria and immunization of rabbits (Cocalico). Western Blots were developed with horseradish peroxidase-conjugated secondary antibodies using the ECL system (Amersham-Pharmacia Biotech, Piscataway, N.J.).

iBMK cells [2] = conditions: cited from earlier work
[3] = system: human GAPDH and β-actin mRNA; test: real-time RT-PCR quantification of mRNA levels in T-Rex-293 cells; format: cell-based; conditions: cells expressing both MazE and MazF
Protocol: Northern blot analysis and real-time PCR (RT-PCR) was preformed as previously described (Zhang, Y., et al., Mol. Cell 12: 913-923 (2003); Cuconati, A., et al., Genes Dev. 17: 2922-2932 (2003)). Total RNA from tetracycline-treated (0, 24, 48 and 72 hr) or untreated (0, 24, 48 and 72 hr) T-Rex-293 (mazF/pcDNA3) and T-Rex-293 (mazF/mazE) cells for were isolated through the use of Trizol Reagent (Gibco, Carlsbad, Calif.). For Northern blot analysis, 10 μg of total RNA from each condition was subjected to formaldehyde-agarose gel electrophoresis followed by transfer onto GeneScreen Plus membrane (NEN Life Science Products, Boston, Mass.). The blot was hybridized with ^32P-labeled human GAPDH or β-actin cDNA. One hundred ng of total RNA was subjected to real time RT-PCR with the Taqman EZ-RT PCR kit (PE Applied Biosystems, Lincoln Centre Drive Foster City, Calif.) using recommended conditions provided by the vendor. […] Reactions were carried out in triplicate and the relative amount of human GAPDH and β-actin mRNA was calculated from the difference in fluorescence signal in the 24-, 48- and 72-hr samples compared with the corresponding 0 hr sample.

[4] = system: human GAPDH and β-actin mRNA; test: Northern blot analysis of cellular mRNA in T-Rex-293 cells; format: cell-based; conditions: co-expression of MazE with MazF, T-Rex-293 (mazF/mazE), throughout time course of induction
Protocol: Northern blot analysis and real-time PCR (RT-PCR) was preformed as previously described (Zhang, Y., et al., Mol. Cell 12: 913-923 (2003); Cuconati, A., et al., Genes Dev. 17: 2922-2932 (2003)). Total RNA from tetracycline-treated (0, 24, 48 and 72 hr) or untreated (0, 24, 48 and 72 hr) T-Rex-293 (mazF/pcDNA3) and T-Rex-293 (mazF/mazE) cells for were isolated through the use of Trizol Reagent (Gibco, Carlsbad, Calif.). For Northern blot analysis, 10 μg of total RNA from each condition was subjected to formaldehyde-agarose gel electrophoresis followed by transfer onto GeneScreen Plus membrane (NEN Life Science Products, Boston, Mass.). The blot was hybridized with ^32P-labeled human GAPDH or β-actin cDNA. One hundred ng of total RNA was subjected to real time RT-PCR with the Taqman EZ-RT PCR kit (PE Applied Biosystems, Lincoln Centre Drive Foster City, Calif.) using recommended conditions provided by the vendor. Primers to analyze the level of human GAPDH mRNA were obtained from Applied Biosystems, and a probe for GAPDH was supplied with 5′ linkage to the reporter dye 2, 7-dimethoxy-4, 5-dichloro-6-carboxy-fluoroecein (JOE), and 3′ linkage to the quencher 6-carboxy-tetramethylrhodamine (TAMURA). β-actin primer sequences were 5′-[…]-3′ and 5′-[…]-3′. β-actin probe sequence was FAM-5′-[…] TTCC-3′-TAMURA. Reactions were carried out in triplicate and the relative amount of human GAPDH and β-actin mRNA was calculated from the difference in fluorescence signal in the 24-, 48- and 72-hr samples compared with the corresponding 0 hr sample.
To assess cellular mRNA levels, total RNA was isolated from whole cells of Tet-treated or -untreated T-Rex-293 cells and subjected to Northern blot analysis using human GAPDH and β-actin cDNA probes. […] Labeled single-stranded DNA fragments complementary to the specific mRNA being sought then are hybridized to the bound mRNA and the label detected by suitable means. […]

T-Rex-293 cells [5] = test: phase contrast morphology / cytopathic effect; format: cell-based, human; conditions: MazE co-expressed with MazF, T-Rex-293
T-Rex-293 cells [6] = test: FACS analysis of propidium iodide labeling (sub-G1 peak); format: cell-based, human; conditions: T-Rex-293 (mazF/mazE), MazE co-expressed with MazF, 72 hours of induction
Protocol: T-Rex-293 (mazF/pcDNA3) cells and T-Rex-293 (mazF/mazE) cells treated with tetracycline for 0, 24, 48 and 72 hr were harvested by trypsinization, pelleted by centrifugation and resuspended in PBS. The cells were fixed with ice-cold 70% ethanol for 30 min and stained with propidium iodide (10 μg/ml) and RNase A (100 μg/ml) overnight. The cells were analyzed on a Becton Dickinson FACSCalibur system (San Jose, Calif.).

T-Rex-293 cells [7] = test: 35S-methionine metabolic labeling (protein synthesis); format: cell-based, human; conditions: T-Rex-293 (mazF/mazE), Tet-treated
Protocol: T-Rex-293 (mazF/pcDNA3) and T-Rex-293 (mazF/mazE) cells were incubated for 0, 24 and 48 hr in tetracycline-containing complete DMEM followed by incubation for 1 hr in fresh methionine-free DMEM containing 10 μCi/ml ^35S-methionine. The cells then were washed with PBS twice and lysed in 2× Laemmli buffer. The cell lysate was subjected to SDS-PAGE followed by autoradiography and coomassie blue stain. Signal intensity was measured by Phosphoimager STORM 860 (Molecular Dynamics, Sunnyvale, Calif.).

T-Rex-293 cells [8] = test: trypan blue exclusion viability; format: cell-based, human; conditions: T-Rex-293 (mazF/mazE), Tet-treated
Protocol: The viability of T-Rex-293 cells was determined by trypan blue exclusion as previously described (Degenhardt, K., et al., J. Biol. Chem. 277: 14127-14134 (2002)). T-Rex-293 (mazF/pcDNA3) and T-Rex-293 (mazF/mazE) cells were cultured for 24 hr before tetracycline treatment and then incubated for 0, 24, 48 and 72 hr at 37° C. in the presence or absence of 10 μg/ml tetracycline. After treatment, cells were collected by centrifugation of the supernatant plus adherent cells, which were harvested by trypsinization. Cells were resuspended in 500 μl of fresh medium containing 0.1% trypan blue solution (Sigma, St. Louis, Mo.) and then counted on a hemocytometer to assess the number of dead blue cells and the total number of cells counted. As a control for apoptotic cell death, T-Rex-293 (mazF/mazE) cells were treated with 1 μM staurosporine (Sigma, St. Louis, Mo.) for same time periods concurrently with tetracycline treatment.

iBMK cells [9] = test: β-galactosidase assay, viability of iBMK cells co-expressing LacZ; format: cell-based, mouse; conditions: MazE transiently co-expressed with MazF in W2 and X2 cells
Protocol: β-galactosidase assays to determine the viability of iBMK cells co-expressing LacZ and MazF were performed as previously described (Han, J., Sabbatini, P., and White, E. Mol. Cell. Biol. 16: 5857-5864 (1996)). W2, D3, X2 and K1 co-transfected with pcDNA6/His/LacZ and pcDNA4/TO/mazF or pcDNA3 for 48 hr were fixed in 1% glutaraldehyde and then stained with 0.2% X-gal solution at 37° C. for 24 hr. β-Galactosidase positive blue cells and the total number of cells (approximately 200 cells) were independently counted on a 6-cm diameter dish.

[10] = W2 and three independent nbk/bik−/− iBMK cell lines

Molecule: CC(=O)O[C@H]1C(=O)[C@@]2(C)[C@H]([C@H](OC(=O)c3ccccc3)[C@]3(O)C[C@H](OC(=O)[C@H](O)[C@@H](NC(=O)c4ccccc4)c4ccccc4)C(C)=C1C3(C)C)[C@]1(OC(C)=O)CO[C@@H]1C[C@@H]2O [paclitaxel]
- sensitivity to paclitaxel-induced cell death (MTT assay) (iBMK cells [1]; D3 cells): resistant
- sensitivity to paclitaxel-induced cell death (MTT assay) (iBMK cells [1]; [10]): clearly sensitive

Molecule: C[C@@H]1C[C@@H]([C@H](O)CC2CC(=O)NC(=O)C2)C(=O)[C@@H](C)C1 [CHX, cycloheximide]
- cell viability (MTT assay) (iBMK cells [1]; D3, K1 and nbk/bik−/− cells, CHX 0.05-10.0 μg/ml for 24 hours): remained high
- survival (MTT assay) (iBMK cells [1]; W2, X2, puma−/−, bim−/− and noxa−/− cells, CHX 0.05-10.0 μg/ml for 24 hours): decreased in a dose-dependent manner

Molecule: CN[C@@H]1C[C@H]2O[C@@](C)([C@@H]1OC)n1c3ccccc3c3c4c(c5c6ccccc6n2c5c31)C(=O)NC4 [staurosporine, reference compound]
- active caspase-3 (Western blot) (caspase-3, PARP; extracts from T-Rex-293 (mazF/mazE) cells treated with 1 μM staurosporine): detected

Molecule: TNF-α
- TNF-α-induced apoptosis (iBMK cells [2]; D3 iBMK cells): resistant
- apoptosis induction (iBMK cells [2]; W2, X2, and K1 iBMK cells): induces apoptosis
- sensitivity to TNF-α-induced cell death (MTT assay) (iBMK cells [1]; D3 cells): resistant
- sensitivity to TNF-α-induced cell death (MTT assay) (iBMK cells [1]; [10]): clearly sensitive

B1: MazE: labile E. coli antitoxin that antagonizes the endoribonuclease activity of MazF; expressed from pcDNA3/mazE together with MazF (protein, UniProt P0AE72 1-82, looked up)
Antitoxin MazE: MIHSSVKRWGNSPAVRIPATLMQALNLNIDDEVKIDLVDGKLIIEPVRKEPVFTLAELVNDITPENLHENIDWGEPKDKEVW
- activation of caspase-3 (Western blot) (caspase-3, PARP; co-expression of MazE with MazF, Tet-treated T-Rex-293 (mazF/mazE)): inhibited
- cleaved PARP (Western blot) (caspase-3, PARP; extracts of cells expressing both MazE and MazF): not present
- levels of both GAPDH and β-actin mRNAs (real-time RT-PCR) [3]: constant levels
- levels of both GAPDH and β-actin mRNAs (Northern blot) [4]: maintained
- cell number and morphology (T-Rex-293 cells [5]): maintained
- sub-G1 peak (T-Rex-293 cells [6]): 11.4%
- effect of MazE co-expression on MazF inhibition of protein synthesis (35S-methionine incorporation) (T-Rex-293 cells [7]): clearly prevented the inhibitory effect of MazF
- effect of co-expression of MazE with MazF on viability (trypan blue exclusion) (T-Rex-293 cells [8]): conferred resistance to MazF-mediated killing
- effect of MazE on MazF-induced cell death (β-galactosidase assay) (iBMK cells [9]): significantly repressed MazF-induced cell death
